Test results from patent US8012944B2, “Method for treating cancer using IAP antisense oligomer and chemotherapeutic agent” (Pharmascience Inc., priority 2003, dated 2011).
d = 2'-deoxy (DNA); m = 2'-O-methyl

Assays:
Assay type in all cases: cell-based, human
HIAP1 mRNA = HIAP1 mRNA in SF295 cells, basal conditions (TaqMan); design: decrease of HIAP1 mRNA compared to mock or scrambled survivin control: concentration or dose not given beside the values; conditions: for HIAP1 mRNA levels (in words): SF295 cells (FIG. 21); for decrease of HIAP1 mRNA compared to mock or scrambled survivin control: SF295 cells, six hours after transfection
Experimental: (§1) RNA was extracted from cells lysed in RLT buffer (QIAGEN, Valencia, Calif.), and purified using QIAGEN RNeasy columns/kits. Real-time quantitative PCR was performed on a Perkin-Elmer ABI 7700 Prism PCR machine. RNA was reverse transcribed and amplified according to the TaqMan Universal PCR Master Mix protocol of PE Biosystems, using primers and probes designed to specifically recognize XIAP, HIAP1, survivin, or GAPDH. For human survivin, the forward primer was 5′-[…]-3′ (SEQ ID NO: 263), the reverse primer was 5′-GAAAGGAAAGCGCAACCG-3′ (SEQ ID NO: 264), and the probe was 5′-(FAM)[…](TAMRA)-3′ (SEQ ID NO: 265). For human HIAP1, the forward primer was 5′-[…]-3′ (SEQ ID NO: 266), the reverse primer was 5′-[…]-3′ (SEQ ID NO: 267), and the probe was 5′-(FAM)[…](TAMRA)-3′ (SEQ ID NO: 268). For human XIAP, the forward primer was 5′-[…]-3′ (SEQ ID NO: 269), the reverse primer was 5′-[…]-3′ (SEQ ID NO: 270), and the probe was 5′-(FAM)[…](TAMRA)-3′ (SEQ ID NO: 271). For human GAPDH, the forward primer was 5′-GAAGGTGAAGGTCGGAGTC-3′ (SEQ ID NO: 272), the reverse primer was 5′-GAAGATGGTGATGGGATTC-3′ (SEQ ID NO: 273), and the probe was 5′-(JOE)[…](TAMRA)-3′ (SEQ ID NO: 274). FAM is 6-carboxyfluoroscein, JOE is 6-carboxy-4,5-dichloro-2,7-dimethoxyfluoroscein, and TAMRA is 6-carboxy-N,N,N′,N′-tetramethylrhodamine. FAM and JOE are 5′ reporter dyes, while TAMRA is a 3′ quencher dye.
(§2) Relative quantification of gene expression was performed as described in the PE Biosystems manual using GAPDH as an internal standard. The comparative Ct (cycle threshold) method was used for relative quantitation of IAP mRNA levels compared to GAPDH mRNA levels. Briefly, real-time fluorescence measurements were taken at each PCR cycle and the threshold cycle (Ct) value for each sample was calculated by determining the point at which fluorescence exceeded a threshold limit of 30 times the baseline standard deviation. The average baseline value and the baseline SD are calculated starting from the third cycle baseline value and stopping at the baseline value three cycles before the signal starts to exponentially rise. The PCR primers and/or probes for the specific IAPs were designed to span at least one exon-intron boundary separated by 1 kb or more of genomic DNA, to reduce the possibility of amplifying and detecting genomic DNA contamination. The specificity of the signal, and possible contamination from DNA, were verified by treating some RNA samples with either DNase or RNase, prior to performing the reverse transcription and PCR reaction steps.
A library of 15 HIAP1 antisense nucleobase oligomers as oligonucleotides was screened for protein knock-down by western blot analysis and for RNA knock-down by TaqMan, using the primers and probes described in Example 3, above, under two different conditions. HIAP1 RNA levels may be detected using standard Northern blot analyses or RT-PCR techniques. The antisense oligonucleotides were administered to cells under basal conditions or under cycloheximide-induction conditions (24 hour treatment with sub-toxic doses). Cycloheximide (CHX) can lead to a 10- to 200-fold induction of HIAP1 mRNA depending on the cell line treated. […] This effect of CHX is via two distinct mechanisms of action. First, CHX activates NFkB, a known transcriptional inducer of HIAP1, by blocking the de novo synthesis of a labile protein, IkB, which is an inhibitor of NFkB. This effect is mimicked by puromycin, another protein synthesis inhibitor, and by TNF-alpha, which induces a signaling cascade leading to the phosphorylation, ubiquination, and degradation of IkB.
SF295 glioblastoma cells were transfected with lipofectin and oligonucleotide (scrambled survivin, no oligonucleotide, antisense APO 1 to APO 15) or left untreated. […]

HIAP1 protein = HIAP1 protein in cycloheximide-induced SF295 cells (western blot)
Excerpt: HIAP1 was detected on a western immunoblot using an affinity-purified anti-rat HIAP1 rabbit polyclonal antibody as a primary antibody and was detected by ECL (Amersham) on X-ray film with a secondary horseradish-peroxidase-conjugated anti-rabbit Ig antibody and a chemiluminescent substrate. The anti-HIAP1 polyclonal antibody is raised against a GST-fusion of the rat HIAP1. This antibody cross-reacts with both human and murine HIAP1 and HIAP2.
The effect of HIAP1 antisense nucleobase oligomers on HIAP1 protein and mRNA expression was also examined in cells induced to express HIAP1. SF295 cells were transfected with oligonucleotides, or were mock transfected. The transfected cells were then treated with 10 μg/ml cycloheximide for 24 hours to induce 70 kDa HIAP1 mRNA and protein. Protein levels were measured by western blot analysis with an anti-HIAP1 polyclonal antibody, and normalized against actin protein in a re-probing of the same blots. The densitometric scan results were plotted against the mock results (set at 100%) in FIG. 22B. […] The transfection process itself (e.g., mock or scrambled survivin) induces HIAP1 protein compared to the untreated sample as shown on the western immunoblot.

XIAP mRNA [1] = experiment: XIAP mRNA knock-down in H460 cells (real-time RT-PCR / TaqMan); conditions: 2 × 2 MBO; NCI-H460 cells, 9 hours post-transfection; relative level (mock control 1.01)
XIAP RNA = XIAP RNA knock-down in T24 cells (TaqMan quantitative PCR)
Excerpt: (§3) We used TaqMan quantitative PCR (described below) to assay for changes in mRNA levels after oligonucleotide treatment. We employed ELISA for determining XIAP protein levels and western blotting for determining HIAP1 protein levels. Transfection conditions were optimized with Lipofectamine plus or Lipofectamine 2000 (Life Technologies, Canada) on T24 bladder carcinoma cells or H460 non-small cell lung carcinoma cells, or lipofectin on SF-295 glioblastoma cells, using a fluorescein-tagged sense oligonucleotide (5′-mGmAGAAGATGACTGGTAAmCmA-3′; SEQ ID NO: 261) from XIAP spanning the start codon as a control. The results were visualized and gauged by epi-fluorescence microscopy. In the case of T24 cells, transfections were further optimized based on the ability of a published oligonucleotide to downregulate survivin expression (Li et al., Nat. Cell Biol. 1:461-466, 1999) (5′-U/TGTGCTATTCTGTGAAU/TU/T-3′ SEQ ID NO: 262). We optimized the transfection conditions based on the TaqMan results of survivin RNA knock-down detected with PCR primers and fluorescent probe, described in detail below. […] We then applied these conditions to screen for XIAP protein knock-down using the oligo library against T24 cells.
as §1, §2
The XIAP synthetic library of 96 antisense oligonucleotides was first screened for decreases in XIAP protein levels. […]

XIAP mRNA [2] = experiment: XIAP mRNA knock-down in H460 cells (real-time RT-PCR / TaqMan)
Method in brief: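 NCI-H460 cells transfected with phosphorothioate antisense oligonucleotides via Lipofectamine 2000; RNA isolated after 6 h treatment. XIAP mRNA quantified by one-step TaqMan real-time RT-PCR, comparative Ct (threshold 30× baseline SD), normalized to GAPDH and expressed relative to untreated control cells.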

XIAP protein = XIAP protein knock-down in T24 cells (XIAP ELISA, relative to total protein); conditions: for XIAP protein levels relative to total protein, compared to mock transfection (in words): first screen of the library
Excerpt: as §3
A standard colorimetric XIAP ELISA assay was performed using an affinity-purified rabbit polyclonal antibody to XIAP as a capture antibody, and was detected with a XIAP monoclonal antibody (MBL, Japan) and a biotinylated anti-mouse Ig antibody and horseradish peroxidase-conjugated streptavidin and TMB substrate. Alternatively, a polyclonal XIAP or HIAP1 antibody may be used to measure XIAP or HIAP1 protein levels, respectively.
The XIAP synthetic library of 96 antisense oligonucleotides was first screened for decreases in XIAP protein levels. Specifically, T24 cells (1.5×10^4 cells/well) were seeded in wells of a 96-well plate on day 1, and were cultured in antibiotic-free McCoy's medium for 24 hours. On day 2, the cells were transfected with XIAP antisense oligonucleotides as described above (oligonucleotides are labeled according to their plated position, i.e., A1 to H12, and include two repeats, A13 and B13 that contain lyophilized DNA pellets that stuck to the sealing membrane). Briefly, the nucleobase oligomers were diluted in 10 μl/well of serum-free, antibiotic-free McCoy's medium and then PLUS reagent was added. Lipofectamine was diluted in 10 μl/well of serum-free, antibiotic-free McCoy's medium, and both mixes were incubated for 15 minutes at room temperature. The mixes were then combined and incubated for 15 minutes at room temperature.
In the meantime, the complete medium was removed from the cells and 50 μl/well of serum-free, antibiotic-free medium was added to the cells. The transfection mixes were added to the well, and the cells were incubated for three hours. Then 30 μl/well of serum-free, antibiotic-free medium and 100 μl/well of antibiotic-free complete medium, containing 20% fetal bovine serum were added to each well.
At day 3, XIAP RNA levels were measured using quantitative real-time PCR techniques, as described above. At day 4, XIAP protein levels were measured by ELISA (FIGS. 1A, 1C, 1E, 1G, 1I, and 1K), and total cellular protein was measured biochemically (FIGS. 1B, 1D, 1F, 1H, 1J, and 1L; used to normalize the XIAP protein levels). The results were compared to a mock transfection sample (treated with the transfection agent but no oligonucleotide DNA was added, and then processed as for the other samples). Time course experiments determined that the optimal time for protein knock-down to be around 12 to 24 hours. […]

## CAAGTACTCACACCTTGGA (chemistry not given here) [APO 12]
HIAP1 mRNA
  HIAP1 mRNA levels (in words): did not cause a stress-induced increase in HIAP1 mRNA
  decrease of HIAP1 mRNA compared to mock or scrambled survivin control: ~50%
HIAP1 protein
  activity in the HIAP1 protein and mRNA assays: high activity, or had significant activity in both the protein and mRNA assays

## CCAGTGGTTTGCAAGCATG (chemistry not given here) [APO 7]
HIAP1 mRNA
  HIAP1 mRNA levels (in words): did not cause a stress-induced increase in HIAP1 mRNA
  decrease of HIAP1 mRNA compared to mock or scrambled survivin control: ~50%
HIAP1 protein
  activity in the HIAP1 protein and mRNA assays: high activity, or had significant activity in both the protein and mRNA assays

## GAAAGGACTTTACTTTATC (antisense; sugars from the 5' end m2 d15 m2, backbone, methylation of C and T or U not given here; further chemistry not fully specified) [Code D8]
XIAP mRNA [1]
  XIAP RNA: 0.55
XIAP RNA
  XIAP down-regulation T24 RNA: 38%
XIAP mRNA [2]
  XIAP down-regulation H460 RNA: 49%
XIAP protein
  XIAP down-regulation T24 protein: 26%
  XIAP protein levels relative to total protein, compared to mock transfection (in words): some decrease

## GAAATTTAGTGGCCAGGAA (chemistry not given here) [APO 8]
HIAP1 mRNA
  HIAP1 mRNA levels (in words): did not cause a stress-induced increase in HIAP1 mRNA
  decrease of HIAP1 mRNA compared to mock or scrambled survivin control: ~50%
HIAP1 protein
  activity in the HIAP1 protein and mRNA assays: high activity, or had significant activity in both the protein and mRNA assays

## GGGCTCAAGTAATTCTCTT (chemistry not given here) [APO 15]
HIAP1 mRNA
  HIAP1 mRNA levels (in words): did not cause a stress-induced increase in HIAP1 mRNA
  decrease of HIAP1 mRNA compared to mock or scrambled survivin control: ~50%
HIAP1 protein
  activity in the HIAP1 protein and mRNA assays: high activity, or had significant activity in both the protein and mRNA assays

## GTATAAAGAAACCCTGCTC (antisense; sugars from the 5' end m2 d15 m2, backbone and T or U not given here; further chemistry not fully specified) [Code D4]
XIAP mRNA [1]
  XIAP RNA: 0.48
XIAP RNA
  XIAP down-regulation T24 RNA: 12%
XIAP mRNA [2]
  XIAP down-regulation H460 RNA: 51%
XIAP protein
  XIAP down-regulation T24 protein: 43%
  XIAP protein levels relative to total protein, compared to mock transfection (in words): some decrease

## TCATTTGAGCCTGGGAGGT (chemistry not given here) [APO 1]
HIAP1 mRNA
  HIAP1 mRNA levels (in words): did not cause a stress-induced increase in HIAP1 mRNA
  decrease of HIAP1 mRNA compared to mock or scrambled survivin control: ~50%
HIAP1 protein
  activity in the HIAP1 protein and mRNA assays: high activity, or had significant activity in both the protein and mRNA assays

## TGCCAGTGTTGATGCTGAA (antisense; chemistry not fully specified) [Code C4]
XIAP mRNA [1]
  XIAP RNA: 0.22
XIAP RNA
  XIAP down-regulation T24 RNA: 28%
XIAP mRNA [2]
  XIAP down-regulation H460 RNA: 77%
XIAP protein
  XIAP down-regulation T24 protein: 56%
  XIAP protein levels relative to total protein, compared to mock transfection (in words): some decrease
